pIC50: −log10 of the molar value. *1 amine or outer side, *2 acyl side, *3 side chain or, on linkers, in order; H or OH if unused. Where a SMILES comes first, the peptide text is derived from it. Bridges are numbered along the chain shown (N, C = ends). [ ]: non-standard residue; d: D form. The star is where a group is joined. ξ: configuration not given here. Phe(4-COOH) = N[C@@H](Cc1ccc(C(=O)O)cc1)C(=O)O; Bip = N[C@@H](Cc1ccc(-c2ccccc2)cc1)C(=O)O; Phe(3-Me) = Cc1cccc(C[C@H](N)C(=O)O)c1; γGlu = O=C(O)[C@H](CCC(=O)[*:2])N[*:1]; NH(CH2)12COOH = O=C(O)CCCCCCCCCCCCN*; Cyclopropanecarbonyl = O=C(C1CC1)*; Val(3-OH) = CC(C)(O)[C@H](N)C(=O)O; hArg = N=C(N)NCCCC[C@H](N)C(=O)O; 4Pal = N[C@@H](Cc1ccncc1)C(=O)O; 2Thi = N[C@@H](Cc1cccs1)C(=O)O; Cha = N[C@@H](CC1CCCCC1)C(=O)O; Ile(3ξ) = CCC(C)[C@H](N)C(=O)O; Thr(3ξ) = CC(O)[C@H](N)C(=O)O; 12Ado = NCCCCCCCCCCCC(=O)O; Carboxymethyl = O=C(O)C*; NMeA = CN[C@@H](C)C(=O)O; Orn = NCCC[C@H](N)C(=O)O; Aun = NCCCCCCCCCCC(=O)O; Dab = NCC[C@H](N)C(=O)O; Dap = NC[C@H](N)C(=O)O; AEEA = NCCOCCOCC(=O)O; Sar = CNCC(=O)O
These molecules were tested against T1, PD-1/PD-L1 interaction (PE-labeled human PD-L1-Ig binding to Jurkat cell line over-expressing human PD-1) (Homo sapiens, UniProt Q15116) (assay: Jurkat-PD-1 Cell Binding High-Content Screening Assay (CBA)). Conditions: Jurkat-hPD-1 cells, PE-labeled PD-L1-Ig 20 nM final; read-out: Jurkat HPD1 PDL1 IC50.
T1 construct: expressed in transfected cells; host or cells: Jurkat
T1 sequence (Q15116 25-288): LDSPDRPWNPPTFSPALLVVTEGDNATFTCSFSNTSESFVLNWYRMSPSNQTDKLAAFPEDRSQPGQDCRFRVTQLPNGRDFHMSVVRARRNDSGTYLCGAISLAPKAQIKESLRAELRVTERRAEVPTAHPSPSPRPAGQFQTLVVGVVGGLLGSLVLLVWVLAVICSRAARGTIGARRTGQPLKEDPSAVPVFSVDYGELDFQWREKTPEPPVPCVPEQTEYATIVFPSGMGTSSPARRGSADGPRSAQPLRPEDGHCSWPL
Summary of the method: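 Compound is added first to the PD-1-expressing Jurkat cells and held 2 h at 37 °C in serum-containing DMEM. The fluorescent PD-L1 fusion follows at 20 nM final for 1 h. Fixed, Hoechst-stained cells are then imaged for bound label.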
A pIC50 of 6.97 was found for `Cc1cccc(C[C@@H]2NC(=O)[C@H](CC(=O)O)NC(=O)[C@H](Cc3ccc(C(=O)O)cc3)NC(=O)[C@H](C(C)O)NC(=O)CSC[C@@H](C(=O)N[C@@H](CCCN)C(=O)N[C@@H](CO)C(=O)NCCCCCCCCCCCC(=O)O)NC(=O)[C@H](CO)NC(=O)[C@H](CCCCN)NC(=O)[C@H](CC3CCCCC3)NC(=O)[C@H](CCN)NC(=O)[C@@H](CC(C)C)NC(=O)[C@H](C)N(C)C(=O)[C@H](Cc3ccc(OCC(=O)O)cc3)NC(=O)[C@H](Cc3ccc(-c4ccccc4)cc3)NC(=O)[C@H](Cc3ccc(OCC(=O)O)cc3)NC2=O)c1` (stereo partly drawn) [Example 2424] ({CH2CO}-[Thr(3ξ)][Phe(4-COOH)]D[Phe(3-Me)]Y(Carboxymethyl)[Bip]Y(Carboxymethyl)[NMeA][dL][Dab][Cha]KSC[Orn]S[12Ado]-OH; thioether N-14) in this work. A pIC50 of 7.96 was found for `CC(C)C[C@@H]1NC(=O)[C@H](Cc2c[nH]c3ccccc23)NC(=O)[C@H](CC(=O)O)NC(=O)[C@H](Cc2ccc(OCC(=O)O)cc2)NC(=O)[C@H](CCCNC(=N)N)NC(=O)CSC[C@@H](C(=O)N[C@@H](CCCN)C(=O)NCCOCCOCC(=O)NCCCCCCCCCCC(=O)O)NC(=O)[C@H](CO)NC(=O)[C@H](C(C)C)NC(=O)[C@H](CC2CCCCC2)NC(=O)[C@H](CCN)NC(=O)[C@@H](CC(C)C)NC(=O)[C@H](C)N(C)C(=O)[C@H](C(C)C)NC(=O)[C@H](Cc2ccc(-c3ccccc3)cc2)NC1=O` [Example 2139] ({CH2CO}-RY(Carboxymethyl)DWL[Bip]V[NMeA][dL][Dab][Cha]VSC[Orn][AEEA][Aun]-OH; thioether N-14) in this work. A pIC50 of 7.98 was found for `CCC(C)[C@@H]1NC(=O)[C@H](Cc2ccc(-c3ccccc3)cc2)NC(=O)[C@H](C(C)C)NC(=O)[C@H](Cc2c[nH]c3ccccc23)NC(=O)[C@H](CC(=O)O)NC(=O)[C@H](Cc2ccc(OCC(=O)O)cc2)NC(=O)[C@H](Cc2c[nH]cn2)NC(=O)CSC[C@@H](C(=O)NCCOCCOCC(=O)N[C@@H](CCC(=O)NCCOCCOCC(=O)N[C@@H](CCCCN)C(=O)NCCCCCCCCCCC(=O)O)C(=O)O)NC(=O)[C@H](CO)NC(=O)[C@H](C(C)C)NC(=O)[C@H](CC2CCCCC2)NC(=O)[C@H](CCN)NC(=O)[C@@H](CC(C)C)NC(=O)[C@H](C)N(C)C1=O` (stereo partly drawn) [Example 2032] ({CH2CO}-HY(Carboxymethyl)DWV[Bip][Ile(3ξ)][NMeA][dL][Dab][Cha]VSC[AEEA][γGlu][AEEA]K[Aun]-OH; thioether N-14) in this work. A pIC50 of 7.82 was found for `Cc1cccc(C[C@@H]2NC(=O)[C@H](CC(=O)O)NC(=O)[C@H](Cc3ccc(OCC(=O)O)cc3)NC(=O)[C@H](CN)NC(=O)CSC[C@@H](C(=O)N[C@@H](CCN)C(=O)NCCCCCCCCCCC(=O)O)NC(=O)[C@H]([C@@H](C)O)NC(=O)[C@H](C(C)C)NC(=O)[C@H](CC3CCCCC3)NC(=O)[C@H](CCN)NC(=O)[C@@H](CC(C)C)NC(=O)[C@H](C)N(C)C(=O)[C@H](Cc3ccc(O)cc3)NC(=O)[C@H](Cc3ccc(-c4ccccc4)cc3)NC(=O)[C@H](C(C)C)NC2=O)c1` [Example 1320] ({CH2CO}-[Dap]Y(Carboxymethyl)D[Phe(3-Me)]V[Bip]Y[NMeA][dL][Dab][Cha]VTC[Dab][Aun]-OH; thioether N-14) in this work. A pIC50 of 6.10 was found for `Cc1cccc(C[C@@H]2NC(=O)[C@H](CC(=O)O)NC(=O)[C@H](Cc3ccc(OCC(=O)O)cc3)NC(=O)[C@H](C(C)O)NC(=O)CSC[C@@H](C(=O)N(C)CC(=O)NCCOCCOCC(=O)NCCCCCCCCCCC(=O)O)NC(=O)[C@H](CCC(=O)O)NC(=O)[C@H](C(C)C)NC(=O)[C@H](CC3CCCCC3)NC(=O)[C@H](CCN)NC(=O)[C@@H](CC(C)C)NC(=O)[C@H](C)N(C)C(=O)[C@H](Cc3ccc(O)cc3)NC(=O)[C@H](Cc3ccc(-c4ccccc4)cc3)NC(=O)[C@H](C(C)C)NC2=O)c1` (stereo partly drawn) [Example 2270] ({CH2CO}-[Thr(3ξ)]Y(Carboxymethyl)D[Phe(3-Me)]V[Bip]Y[NMeA][dL][Dab][Cha]VEC[Sar][AEEA][Aun]-OH; thioether N-14) in this work. A pIC50 of 7.90 was found for `CC(=O)NCCC[C@@H]1NC(=O)[C@H](C(C)C)NC(=O)[C@H](CC2CCCCC2)NC(=O)[C@H](CCN)NC(=O)[C@@H](CC(C)C)NC(=O)[C@H](C)N(C)C(=O)[C@H](C(C)C)NC(=O)[C@H](Cc2ccc(-c3ccccc3)cc2)NC(=O)[C@H](CC(C)C)NC(=O)[C@H](Cc2c[nH]c3ccccc23)NC(=O)[C@H](CC(=O)O)NC(=O)[C@H](Cc2ccncc2)NC(=O)[C@H](Cc2ccc(OCC(=O)O)cc2)NC(=O)CSC[C@@H](C(=O)NCC(=O)NCCOCCOCC(=O)N[C@@H](CN)C(=O)NCCCCCCCCCCC(=O)O)NC1=O` [Example 2169] ({CH2CO}-Y(Carboxymethyl)[4Pal]DWL[Bip]V[NMeA][dL][Dab][Cha]V[Orn](Ac)CG[AEEA][Dap][Aun]-OH; thioether N-14) in this work. A pIC50 of 7.85 was found for `Cc1cccc(C[C@@H]2NC(=O)[C@H](CC(=O)O)NC(=O)[C@H](Cc3ccc(OCC(=O)O)cc3)NC(=O)[C@H](CCCCNC(=N)N)NC(=O)CSC[C@@H](C(=O)N[C@@H](CCN)C(=O)NCCCCCCCCCCC(=O)O)NC(=O)[C@H](C(C)O)NC(=O)[C@H](C(C)C)NC(=O)[C@H](CC3CCCCC3)NC(=O)[C@H](CCN)NC(=O)[C@@H](CC(C)C)NC(=O)[C@H](C)N(C)C(=O)[C@H](CCCCNC(=O)C3CC3)NC(=O)[C@H](Cc3ccc(-c4ccccc4)cc3)NC(=O)[C@H](Cc3ccc(O)cc3)NC2=O)c1` (stereo partly drawn) [Example 2399] ({CH2CO}-[hArg]Y(Carboxymethyl)D[Phe(3-Me)]Y[Bip]K(Cyclopropanecarbonyl)[NMeA][dL][Dab][Cha]V[Thr(3ξ)]C[Dab][Aun]-OH; thioether N-14) in this work. A pIC50 of 6.11 was found for `CCC(C)[C@@H]1NC(=O)[C@H](Cc2ccc(-c3ccccc3)cc2)NC(=O)[C@H](CC(C)C)NC(=O)[C@H](Cc2c[nH]c3ccccc23)NC(=O)[C@H](CC(=O)O)NC(=O)[C@H](Cc2ccc(O)cc2)NC(=O)[C@H](Cc2ccncc2)NC(=O)CSC[C@@H](C(=O)N[C@H](CC(N)=O)C(=O)NCCOCCOCC(=O)N[C@@H](CCN)C(=O)NCCOCCOCC(=O)NCCCCCCCCCCC(=O)O)NC(=O)[C@H](CO)NC(=O)[C@H](C(C)C)NC(=O)[C@H](CC(C)C)NC(=O)[C@H](CC(N)=O)NC(=O)[C@@H](CC(C)C)NC(=O)[C@H](C)N(C)C1=O` (stereo partly drawn) [Example 2061] ({CH2CO}-[4Pal]YDWL[Bip][Ile(3ξ)][NMeA][dL]NLVSC[dN][AEEA][Dab][AEEA][Aun]-OH; thioether N-14) in this work. A pIC50 of 7.69 was found for `Cc1cccc(C[C@@H]2NC(=O)[C@H](CC(=O)O)NC(=O)[C@H](Cc3ccc(C(=O)O)cc3)NC(=O)[C@H](Cc3ccc(OCC(=O)O)cc3)NC(=O)CSC[C@@H](C(=O)N[C@@H](CCN)C(=O)NCCCCCCCCCCC(=O)O)NC(=O)[C@H](CCC(=O)O)NC(=O)[C@H](C(C)C)NC(=O)[C@H](CC3CCCCC3)NC(=O)[C@H](CCN)NC(=O)[C@@H](CC(C)C)NC(=O)[C@H](C)N(C)C(=O)[C@H](C(C)C)NC(=O)[C@H](Cc3ccc(-c4ccccc4)cc3)NC(=O)[C@H](CC(C)C)NC2=O)c1` [Example 2293] ({CH2CO}-Y(Carboxymethyl)[Phe(4-COOH)]D[Phe(3-Me)]L[Bip]V[NMeA][dL][Dab][Cha]VEC[Dab][Aun]-OH; thioether N-14) in this work. A pIC50 of 7.94 was found for `Cc1cccc(C[C@@H]2NC(=O)[C@H](CC(=O)O)NC(=O)[C@H](Cc3ccc(C(=O)O)cc3)NC(=O)[C@H](CCN)NC(=O)CSC[C@@H](C(=O)N[C@@H](CCN)C(=O)NCCCCCCCCCCC(=O)O)NC(=O)[C@H](CO)NC(=O)[C@H](C(C)(C)O)NC(=O)[C@H](CC3CCCCC3)NC(=O)[C@H](CCN)NC(=O)[C@@H](CC(C)C)NC(=O)[C@H](C)N(C)C(=O)[C@H](Cc3ccc(OCC(=O)O)cc3)NC(=O)[C@H](Cc3ccc(-c4ccccc4)cc3)NC(=O)[C@H](Cc3cccs3)NC2=O)c1` [Example 1294] ({CH2CO}-[Dab][Phe(4-COOH)]D[Phe(3-Me)][2Thi][Bip]Y(Carboxymethyl)[NMeA][dL][Dab][Cha][Val(3-OH)]SC[Dab][Aun]-OH; thioether N-14) in this work.

Same assay, conditions: PE-labeled PD-L1-Ig 20 nM final, Jurkat-hPD-1 cells; read-out: Jurkat HPD1 PDL1 IC50
A pIC50 of 8.62 was found for `CCC(C)[C@@H]1NC(=O)[C@H](Cc2ccc(-c3ccccc3)cc2)NC(=O)[C@H](C(C)C)NC(=O)[C@H](Cc2c[nH]c3ccccc23)NC(=O)[C@H](CC(=O)O)NC(=O)[C@H](Cc2ccc(C(=O)O)cc2)NC(=O)[C@H](Cc2cnc[nH]2)NC(=O)CSC[C@@H](C(=O)N[C@@H](CCN)C(=O)NCCOCCOCC(=O)NCCCCCCCCCCC(=O)O)NC(=O)[C@H](C(C)O)NC(=O)[C@H](C(C)(C)O)NC(=O)[C@H](CC2CCCCC2)NC(=O)[C@H](CCN)NC(=O)[C@@H](CC(C)C)NC(=O)[C@H](C)N(C)C1=O` (stereo partly drawn) [Example 2530] ({CH2CO}-H[Phe(4-COOH)]DWV[Bip][Ile(3ξ)][NMeA][dL][Dab][Cha][Val(3-OH)][Thr(3ξ)]C[Dab][AEEA][Aun]-OH; thioether N-14) in this work. A pIC50 of 7.63 was found for `CC(=O)NCCCC[C@@H]1NC(=O)[C@H](C(C)(C)O)NC(=O)[C@H](CC2CCCCC2)NC(=O)[C@H](CCN)NC(=O)[C@@H](CC(C)C)NC(=O)[C@H](C)N(C)C(=O)[C@H](Cc2ccc(OCC(=O)O)cc2)NC(=O)[C@H](Cc2ccc(-c3ccccc3)cc2)NC(=O)[C@H](Cc2ccc(OCC(=O)O)cc2)NC(=O)[C@H](Cc2cccc(C)c2)NC(=O)[C@H](CC(=O)O)NC(=O)[C@H](Cc2ccc(OCC(=O)O)cc2)NC(=O)[C@H](C(C)O)NC(=O)CSC[C@@H](C(=O)N[C@@H](CCN)C(=O)NCCOCCOCC(=O)N[C@@H](CCC(=O)NCCCCCCCCCCCCC(=O)O)C(=O)O)NC1=O` (stereo partly drawn) [Example 2658] ({CH2CO}-[Thr(3ξ)]Y(Carboxymethyl)D[Phe(3-Me)]Y(Carboxymethyl)[Bip]Y(Carboxymethyl)[NMeA][dL][Dab][Cha][Val(3-OH)]K(Ac)C[Dab][AEEA]E(NH(CH2)12COOH)-OH; thioether N-14) in this work.

From patent publication US20260070945A1, “MACROCYCLIC IMMUNOMODULATORS” (Bristol-Myers Squibb Company, priority 2022, published 2026)
